Results taken from PubChem BioAssay (NCI).
“And” between values parts separate entries of the source, which are not always exact repeats. Equal entries are not always repeated.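 Step 1: Grow cells in 96-well plates. Step 2: Expose to compound for 48 hours at 5 concentrations. Step 3: Interpolate endpoints linearly; if unreached, use highest concentration. GI50 marks 50% less growth. TGI denotes the concentration required for complete inhibition of growth.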

Legend:
Assay in all cases: NCI-60 cell line screen, 48 h
786-0 renal = tested on: 786-0 renal
A498 renal = tested on: A498 renal
ACHN renal = tested on: ACHN renal
BT-549 breast = tested on: BT-549 breast
CAKI-1 renal = tested on: CAKI-1 renal
COLO 205 colon = tested on: COLO 205 colon
DU-145 prostate = tested on: DU-145 prostate
EKVX NSCLC = tested on: EKVX NSCLC
HCC-2998 colon = tested on: HCC-2998 colon
HCT-116 colon = tested on: HCT-116 colon
HCT-15 colon = tested on: HCT-15 colon
HL-60(TB) leukemia = tested on: HL-60(TB) leukemia
HOP-62 NSCLC = tested on: HOP-62 NSCLC
HS 578T breast = tested on: HS 578T breast
HT29 colon = tested on: HT29 colon
IGROV1 ovarian = tested on: IGROV1 ovarian
K-562 leukemia = tested on: K-562 leukemia
KM12 colon = tested on: KM12 colon
LOX IMVI melanoma = tested on: LOX IMVI melanoma
MALME-3M melanoma = tested on: MALME-3M melanoma
MCF7 breast = tested on: MCF7 breast
MDA-MB-231 breast = tested on: MDA-MB-231 breast
MDA-MB-435 = tested on: MDA-MB-435
MDA-N = tested on: MDA-N
MOLT-4 leukemia = tested on: MOLT-4 leukemia
NCI-H226 lung = tested on: NCI-H226 lung
NCI-H23 lung = tested on: NCI-H23 lung
NCI-H460 lung = tested on: NCI-H460 lung
NCI-H522 lung = tested on: NCI-H522 lung
NCI/ADR-RES ovarian = tested on: NCI/ADR-RES ovarian
OVCAR-3 ovarian = tested on: OVCAR-3 ovarian
OVCAR-4 ovarian = tested on: OVCAR-4 ovarian
OVCAR-5 ovarian = tested on: OVCAR-5 ovarian
OVCAR-8 ovarian = tested on: OVCAR-8 ovarian
PC-3 prostate = tested on: PC-3 prostate
RPMI-8226 leukemia = tested on: RPMI-8226 leukemia
RXF 393 renal = tested on: RXF 393 renal
SF-268 CNS = tested on: SF-268 CNS
SF-295 CNS = tested on: SF-295 CNS
SK-MEL-2 melanoma = tested on: SK-MEL-2 melanoma
SK-MEL-28 melanoma = tested on: SK-MEL-28 melanoma
SK-MEL-5 melanoma = tested on: SK-MEL-5 melanoma
SN12C renal = tested on: SN12C renal
SNB-19 CNS = tested on: SNB-19 CNS
SNB-75 CNS = tested on: SNB-75 CNS
SR leukemia = tested on: SR leukemia
SW-620 colon = tested on: SW-620 colon
T-47D breast = tested on: T-47D breast
TK-10 renal = tested on: TK-10 renal
U251 CNS = tested on: U251 CNS
UACC-257 melanoma = tested on: UACC-257 melanoma
UACC-62 melanoma = tested on: UACC-62 melanoma
UO-31 renal = tested on: UO-31 renal
A549 NSCLC = tested on: A549 NSCLC
HOP-92 NSCLC = tested on: HOP-92 NSCLC
M14 melanoma = tested on: M14 melanoma
SF-539 CNS = tested on: SF-539 CNS
SK-OV-3 ovarian = tested on: SK-OV-3 ovarian

COc1ccc(-n2c(C)nc3ccc(NC4OCC(O)C(O)C4O)cc3c2=O)cc1 (stereo not given)
TGI (786-0 renal): > 100 µM | TGI (A498 renal): > 100 µM | TGI (ACHN renal): > 100 µM | TGI (BT-549 breast): > 100 µM | GI50 (CAKI-1 renal): > 100 µM and 39.5 µM | TGI (CAKI-1 renal): > 100 µM | TGI (COLO 205 colon): > 100 µM | TGI (DU-145 prostate): > 100 µM | TGI (EKVX NSCLC): > 100 µM | TGI (HCC-2998 colon): > 100 µM | TGI (HCT-116 colon): 40.4 µM and 39.3 µM | TGI (HCT-15 colon): 65.8 µM and 80.8 µM | TGI (HL-60(TB) leukemia): 62.4 µM and 68.2 µM | TGI (HOP-62 NSCLC): > 100 µM | TGI (HS 578T breast): > 100 µM | TGI (HT29 colon): 68.5 µM and 80.2 µM | TGI (IGROV1 ovarian): > 100 µM | TGI (K-562 leukemia): 87.2 µM and 95.1 µM | GI50 (KM12 colon): 36.5 µM and > 100 µM | TGI (KM12 colon): > 100 µM | TGI (LOX IMVI melanoma): 42.6 µM and 50.8 µM | TGI (MALME-3M melanoma): > 100 µM | TGI (MCF7 breast): > 100 µM | TGI (MDA-MB-231 breast): > 100 µM | TGI (MDA-MB-435): > 100 µM | TGI (MDA-N): > 100 µM | TGI (MOLT-4 leukemia): 84.7 µM and > 100 µM | TGI (NCI-H226 lung): > 100 µM | TGI (NCI-H23 lung): > 100 µM | TGI (NCI-H460 lung): > 100 µM | TGI (NCI-H522 lung): 72 µM and 55 µM | TGI (NCI/ADR-RES ovarian): > 100 µM | TGI (OVCAR-3 ovarian): > 100 µM | TGI (OVCAR-4 ovarian): > 100 µM | TGI (OVCAR-5 ovarian): > 100 µM | TGI (OVCAR-8 ovarian): 94.6 µM and 82.3 µM | TGI (PC-3 prostate): > 100 µM | TGI (RPMI-8226 leukemia): 49.4 µM and 61.6 µM | TGI (RXF 393 renal): 81.9 µM and 87.8 µM | TGI (SF-268 CNS): > 100 µM | TGI (SF-295 CNS): > 100 µM | TGI (SK-MEL-2 melanoma): > 100 µM | TGI (SK-MEL-28 melanoma): > 100 µM and 57 µM | TGI (SK-MEL-5 melanoma): > 100 µM | TGI (SN12C renal): > 100 µM | TGI (SNB-19 CNS): > 100 µM | TGI (SNB-75 CNS): > 100 µM | TGI (SR leukemia): 68.4 µM and 60.4 µM | TGI (SW-620 colon): > 100 µM and 72.6 µM | TGI (T-47D breast): > 100 µM | TGI (TK-10 renal): > 100 µM | TGI (U251 CNS): > 100 µM | TGI (UACC-257 melanoma): > 100 µM | TGI (UACC-62 melanoma): > 100 µM | TGI (UO-31 renal): > 100 µM

N#CC1CCN2N=C(c3ccccc3)SC12c1ccccc1 (stereo not given)
TGI (786-0 renal): > 100 µM | TGI (A549 NSCLC): > 100 µM | TGI (ACHN renal): > 100 µM | TGI (BT-549 breast): > 100 µM | TGI (CAKI-1 renal): > 100 µM | TGI (COLO 205 colon): > 100 µM | TGI (EKVX NSCLC): 97.3 µM | TGI (HCC-2998 colon): > 100 µM | TGI (HCT-116 colon): > 100 µM | TGI (HCT-15 colon): > 100 µM | TGI (HL-60(TB) leukemia): > 100 µM | TGI (HOP-62 NSCLC): > 100 µM | TGI (HOP-92 NSCLC): > 100 µM | TGI (HS 578T breast): > 100 µM | TGI (HT29 colon): > 100 µM | TGI (IGROV1 ovarian): > 100 µM | TGI (K-562 leukemia): > 100 µM | TGI (KM12 colon): > 100 µM | TGI (LOX IMVI melanoma): > 100 µM | TGI (M14 melanoma): > 100 µM | TGI (MALME-3M melanoma): > 100 µM | TGI (MCF7 breast): > 100 µM | TGI (MDA-MB-231 breast): > 100 µM | TGI (MDA-MB-435): > 100 µM | TGI (MDA-N): > 100 µM | TGI (MOLT-4 leukemia): 83.4 µM | TGI (NCI-H226 lung): > 100 µM | TGI (NCI-H23 lung): > 100 µM | TGI (NCI-H460 lung): > 100 µM | TGI (NCI-H522 lung): > 100 µM | TGI (NCI/ADR-RES ovarian): > 100 µM | TGI (OVCAR-4 ovarian): > 100 µM | TGI (OVCAR-5 ovarian): > 100 µM | TGI (OVCAR-8 ovarian): > 100 µM | TGI (PC-3 prostate): > 100 µM | TGI (RPMI-8226 leukemia): > 100 µM | TGI (RXF 393 renal): > 100 µM | TGI (SF-268 CNS): > 100 µM | TGI (SF-295 CNS): > 100 µM | TGI (SF-539 CNS): > 100 µM | TGI (SK-MEL-2 melanoma): > 100 µM | TGI (SK-MEL-28 melanoma): > 100 µM | TGI (SK-MEL-5 melanoma): > 100 µM | TGI (SK-OV-3 ovarian): > 100 µM | TGI (SN12C renal): > 100 µM | TGI (SNB-19 CNS): > 100 µM | TGI (SNB-75 CNS): > 100 µM | TGI (SR leukemia): > 100 µM | TGI (SW-620 colon): > 100 µM | TGI (T-47D breast): > 100 µM | TGI (TK-10 renal): > 100 µM | TGI (U251 CNS): > 100 µM | TGI (UACC-257 melanoma): > 100 µM | TGI (UACC-62 melanoma): 29.5 µM | TGI (UO-31 renal): > 100 µM
